# Assay results published in patent US8198447B2, “Fused tricyclic compound having aldose reductase inhibitory activity” (National University Corporation University of Toyama, priority 2007, dated 2012).
# How the values were obtained:
# [1] = system: mice; experiment: Acute toxicity test; assay type: in vivo; conditions: 500 mg/kg body weight, three mice
# Method: Compound 28 was orally administered to three mice at a dose of 500 mg/kg body weight, the maximum amount considered to be prescribed for the mouse in one dose.
# [2] = target: Aldose reductase II (Homo sapiens, UniProt P15121); experiment: Aldose reductase inhibitory activity (NADPH decrease at 340 nm, DL-glyceraldehyde substrate); assay type: biochemical; conditions: pH 6.2, 100 mM DL-glyceraldehyde, 1.5 mM NADPH
# Method: A reaction solution containing a 200 mM of a phosphate buffer solution (pH 6.2), 1.5 mM of reduced nicotinamide adenine dinucleotide phosphate (NADPH), 1 mg/ml of bovine serum albumin, a test compound, and 100 mM of DL-glyceraldehyde as a substrate was prepared. Aldose reductase II (5.1×10^−1 unit/ml) was added to the solution to initiate the reaction, and the amount of NADPH reduced by the reaction was measured at an absorption wavelength of 340 nm using a spectrophotometer.
smiles,measurement,setting,value
"O=C(O)Cn1c2c(c3c(F)cc(F)cc31)CCN(Cc1ccccc1)C2=S [Compound 28, (2-Benzyl-5,7-difluoro-1-thioxo-1,2,3,4-tetrahydro-β-carbolin-9-yl)acetic acid]",Survival after single oral dose,[1],all of the three mice survived
same,"Abnormalities in internal organs, action, etc.",[1]; oral,no abnormalities being observed
same,IC50,[2],2500 nM
